{"source": "patent US12194039B2", "about": "“Methods of treating heart failure by administering omecamtiv mecarbil” (Cytokinetics, Inc., priority 2020, dated 2025)", "key": {"plasma proteins": {"system": "plasma proteins", "assay": "Plasma protein binding", "format": "in vitro ADME"}, "[1]": {"assay": "Single 35 mg dose of radiolabeled OM: blood to plasma ratio and excretion", "format": "in vivo, human", "conditions": "oral radiolabeled OM, healthy subjects", "description": "The volume of distribution at steady state was approximately 4.8-6.6 L/kg.\nClearance of OM after oral administration was primarily through metabolism in the liver. […] Following oral administration of radiolabeled OM to healthy subjects, approximately 49% of the dose was excreted in urine (primarily as metabolites with 8% of parent compound recovered) and 38% in feces (primarily as unchanged drug)."}, "CYP3A4": {"system": "CYP3A4", "assay": "Clinical studies and physiologically based pharmacokinetic modeling of OM as perpetrator", "format": "in vivo, human", "conditions": "clinical studies and PBPK modeling; result in words", "excerpt": "(§1) OM may be administered with drugs that are substrates of CYP3A4, CYP2C8, P-gp or BCRP."}, "CYP2C8": {"molecular_target": "T1, CYP2C8 (Homo sapiens, UniProt P10632)", "T1 sequence (P10632 1-490)": "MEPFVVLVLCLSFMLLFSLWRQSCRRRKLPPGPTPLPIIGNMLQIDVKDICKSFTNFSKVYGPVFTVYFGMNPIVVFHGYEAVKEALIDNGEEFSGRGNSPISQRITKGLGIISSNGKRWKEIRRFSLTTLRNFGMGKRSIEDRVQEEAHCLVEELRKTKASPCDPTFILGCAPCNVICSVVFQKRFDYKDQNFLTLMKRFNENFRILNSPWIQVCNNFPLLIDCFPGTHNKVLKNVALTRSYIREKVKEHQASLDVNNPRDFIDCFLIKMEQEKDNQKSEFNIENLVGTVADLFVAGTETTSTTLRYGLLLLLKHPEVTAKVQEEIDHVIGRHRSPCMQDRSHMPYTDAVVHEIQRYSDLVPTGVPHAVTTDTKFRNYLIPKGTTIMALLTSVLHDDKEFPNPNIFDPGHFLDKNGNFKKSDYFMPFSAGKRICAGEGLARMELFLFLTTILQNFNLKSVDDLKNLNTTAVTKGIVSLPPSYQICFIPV", "assay": "Clinical studies and physiologically based pharmacokinetic modeling of OM as perpetrator", "format": "in vivo", "design": "from tissue", "conditions": "clinical studies and PBPK modeling; result in words", "excerpt": "as §1"}, "P-gp": {"molecular_target": "P-gp (Homo sapiens, UniProt P08183)", "sequence (P08183 whole entry)": "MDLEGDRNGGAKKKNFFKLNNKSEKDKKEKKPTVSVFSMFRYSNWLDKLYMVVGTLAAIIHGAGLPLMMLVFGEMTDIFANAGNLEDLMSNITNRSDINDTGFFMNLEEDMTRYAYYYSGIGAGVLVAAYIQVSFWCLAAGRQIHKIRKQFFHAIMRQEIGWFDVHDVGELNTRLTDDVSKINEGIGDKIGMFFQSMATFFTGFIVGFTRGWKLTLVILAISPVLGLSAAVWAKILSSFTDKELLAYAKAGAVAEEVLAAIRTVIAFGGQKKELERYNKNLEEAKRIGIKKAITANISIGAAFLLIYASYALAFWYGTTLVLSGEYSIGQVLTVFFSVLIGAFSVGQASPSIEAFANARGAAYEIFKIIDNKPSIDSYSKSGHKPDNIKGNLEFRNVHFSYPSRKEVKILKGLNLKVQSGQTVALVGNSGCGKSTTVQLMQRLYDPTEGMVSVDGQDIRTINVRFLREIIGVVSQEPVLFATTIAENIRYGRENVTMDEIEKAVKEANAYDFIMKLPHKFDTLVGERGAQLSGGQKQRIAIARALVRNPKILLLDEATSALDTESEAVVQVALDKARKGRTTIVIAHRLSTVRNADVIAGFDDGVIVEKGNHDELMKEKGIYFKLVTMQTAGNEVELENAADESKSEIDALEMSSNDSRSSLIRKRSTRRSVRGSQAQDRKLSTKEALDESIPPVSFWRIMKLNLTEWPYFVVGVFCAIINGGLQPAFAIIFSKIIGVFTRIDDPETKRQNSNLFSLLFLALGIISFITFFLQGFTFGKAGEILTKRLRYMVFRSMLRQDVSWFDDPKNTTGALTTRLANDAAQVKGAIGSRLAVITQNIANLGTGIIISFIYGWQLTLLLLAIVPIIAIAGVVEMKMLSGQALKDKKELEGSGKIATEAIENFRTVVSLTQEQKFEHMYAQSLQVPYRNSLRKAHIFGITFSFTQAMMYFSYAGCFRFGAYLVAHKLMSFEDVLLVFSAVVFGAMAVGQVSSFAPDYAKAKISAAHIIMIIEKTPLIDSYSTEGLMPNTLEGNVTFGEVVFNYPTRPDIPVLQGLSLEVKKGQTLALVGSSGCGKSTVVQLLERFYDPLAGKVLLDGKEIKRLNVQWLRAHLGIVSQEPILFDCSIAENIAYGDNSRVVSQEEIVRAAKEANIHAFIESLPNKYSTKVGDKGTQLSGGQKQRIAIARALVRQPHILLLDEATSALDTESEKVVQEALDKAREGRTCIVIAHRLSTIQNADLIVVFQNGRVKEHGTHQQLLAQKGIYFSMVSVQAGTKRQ", "assay": "In vitro inhibition by OM", "format": "in vitro ADME", "conditions": "result in words"}}, "data": [{"smiles": "COC(=O)N1CCN(Cc2cccc(NC(=O)Nc3ccc(C)nc3)c2F)CC1", "note": "[omecamtiv mecarbil]", "values": [{"measurement": "Binding to plasma proteins", "setting": "plasma proteins", "value": 81.5, "unit": "%"}, {"measurement": "Concentration dependence of protein binding", "setting": "plasma proteins; result in words", "value": "independent of drug concentration up to 4000 ng/mL"}, {"measurement": "Parent compound recovered in urine", "setting": "[1]", "value": 8, "unit": "%"}, {"measurement": "Dose excreted in urine", "setting": "[1]; primarily as metabolites", "value": "approximately 49%"}, {"measurement": "Dose excreted in feces", "setting": "[1]; primarily as unchanged drug", "value": "~38", "unit": "%"}, {"measurement": "Induction of CYP3A4", "setting": "CYP3A4", "value": "weak inducer"}, {"measurement": "Inhibition of CYP2C8", "setting": "CYP2C8", "value": "weak inhibitor"}, {"measurement": "Inhibition of P-gp", "setting": "P-gp", "value": "inhibitor"}]}]}
